Measured values reported in US7923465B2, “Cannabinoid receptor ligands, pharmaceutical compositions containing them, and process for their preparation” (priority 2005, dated 2011).

How the values were obtained:
hCB1 = hCB1 (Homo sapiens, UniProt P21554); assay: In vitro binding assay using hCB1-CHO membranes, [3H]-CP-55,940 displacement (Protocol II); parameters: expressed in transfected cells; host or cells: CHO (hCB1-CHO, generated in-house)
Procedure: II. Protocol for In Vitro Assay Using hCB1-CHO Membranes
The reaction was set up in a total volume of 200 μl in PEI (Poly(ethyleneimine)) (0.2%) precoated Millipore GFB (Glass Fibre-B) filter plates. 1 mM stocks of test compounds were prepared in DMSO and tested at a final concentration of 300 nM. The non-specific binding was determined by 0.5 μM CP-55, 940. […] The assay mixture (with or without the test compound) was incubated at 37° C. for 1 hour. The reaction was stopped by rapid filtration under vacuum and the radioactivity on the filters was measured by liquid scintillation counting.

hCB2 = hCB2 (Homo sapiens, UniProt P34972); assay: In vitro binding assay using hCB2-CHO membranes, [3H]-CP-55,940 displacement (Protocol IV); parameters: expressed in transfected cells; host or cells: CHO (hCB2-CHO, generated in-house); conditions: hCB2-CHO membranes, [3H]-CP-55,940 displacement; for inhibition at 0.3 µM: 1 h, read-out: % Displacement Protocol IV
hCB2, sequence (P34972 whole entry): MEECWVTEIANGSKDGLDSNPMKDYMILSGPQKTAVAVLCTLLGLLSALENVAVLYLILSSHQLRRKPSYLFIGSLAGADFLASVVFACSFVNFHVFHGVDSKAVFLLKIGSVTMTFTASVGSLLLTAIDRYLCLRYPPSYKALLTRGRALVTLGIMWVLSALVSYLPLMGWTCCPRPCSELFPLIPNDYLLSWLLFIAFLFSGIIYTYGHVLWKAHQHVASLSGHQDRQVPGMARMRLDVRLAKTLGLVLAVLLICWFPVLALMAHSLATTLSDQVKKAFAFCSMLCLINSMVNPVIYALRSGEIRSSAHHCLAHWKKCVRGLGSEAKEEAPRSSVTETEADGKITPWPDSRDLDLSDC
How it was run: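 Compounds were tested at a single 300 nM final concentration for displacing 0.75 nM [3H]-CP-55,940 from hCB2-CHO membranes (1 h, 30 °C, 50 mM Tris pH 7.4, 5 mM MgCl2, 1 mM EDTA, 0.1% BSA). Filter-bound radioactivity was counted, with 0.5 μM unlabelled CP-55,940 for nonspecific binding; results are % displacement.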

CB1 [1] = target: T1, CB1 (Rattus norvegicus, UniProt P20272); assay: GTPγS binding assay, CB1 functional assay in rat cerebellar membrane (Protocol VIII); format: biochemical; parameters: 10 μg rat cerebellum membrane; from tissue; host or cells: rat cerebellum membrane, prepared in-house; conditions: for activation at 1 µM: 1 h, GTPγS binding over basal, rat cerebellar membrane, tested at 1 uM, read-out: Per Se % Stimulation; for inhibition at 1 µM: GTPγS binding, tested at 1 uM in presence of 1 μM WIN 55,212-2, read-out: % Inhibition of WIN-55212-2 induced stimulation
T1 sequence (P20272 whole entry): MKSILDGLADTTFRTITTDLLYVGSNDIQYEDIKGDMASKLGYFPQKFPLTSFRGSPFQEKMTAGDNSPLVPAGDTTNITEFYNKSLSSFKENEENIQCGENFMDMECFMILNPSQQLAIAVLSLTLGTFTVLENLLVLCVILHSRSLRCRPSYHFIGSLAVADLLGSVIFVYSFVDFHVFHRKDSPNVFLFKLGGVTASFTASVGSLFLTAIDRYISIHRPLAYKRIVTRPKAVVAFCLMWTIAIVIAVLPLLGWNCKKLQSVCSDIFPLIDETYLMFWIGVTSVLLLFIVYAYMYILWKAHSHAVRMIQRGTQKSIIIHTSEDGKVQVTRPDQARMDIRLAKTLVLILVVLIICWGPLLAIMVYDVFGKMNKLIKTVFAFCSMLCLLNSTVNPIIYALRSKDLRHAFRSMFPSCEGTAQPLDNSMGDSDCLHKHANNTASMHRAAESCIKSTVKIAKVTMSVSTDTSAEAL
Procedure: VIII. Protocol for GTPγS Binding Assay (CB1 Functional Assay in Rat Cerebellar Membrane)
In this GTPγS binding assay, total, basal and nonspecific binding were determined. See Griffin G., Atkinson P. J., Showalter V. M., Martin B. R. and Abood M. E., “Evaluation of cannabinoid receptor agonists and antagonists using the Guanosine-5′-O-(3-(^35S)thio)-triphosphate binding assay in rat cerebellar membranes,” J Pharmacol Exp Ther 285: 553-560, 1998. Three wells for total binding, three wells for basal binding, and three wells for nonspecific binding at 0.2 nM concentration of radioligand were used. Basal binding was defined by 50 μM GDP (Guanosine diphosphate) and non-specific binding was defined by 10 μM unlabeled GTPγS. 10 μg rat cerebellum membrane, 50 μM of GDP, WIN-55212-2 or test compound (1 μM or 300 nM), 10 μM unlabeled GTPγs, and 0.2 nM of [^35S]GTPγS were added into a 96 well plate and the final volume of the reaction mixture was made with GTPγS buffer (50 mM Tris, 3 mM anhydrous MgCl2, 0.2 mM EGTA and 100 mM NaCl pH 7.4) to 200 μl. The plates were incubated at 30° C. for 1 hour. Then the reaction was stopped by filtration using a Whatman GF/B-96 microfilter plate. Three washings were given using Tris-HCl. The radioactivity bound to the brain membrane was retained on the filter disks to which scintillation fluid was added (Microscint PS). Then plates were read for radioactive counts using a Beta Liquid Scintillation Counter (Packard Instruments, Ill., USA).
The rat cerebellar brain membrane was prepared as follow: • 1. Sacrifice the rat and take out the whole brain and separate cerebellum as fast as possible and keep it on ice. • 2. Take the weight of the cerebellum and homogenize in 30 ml of homogenizing buffer (50 mM Tris-HCL containing 1 mM EDTA and 5% sucrose, pH 7.5) using homogenizer in cold condition. • 3. Centrifuge the homogenized cerebellum at 18000 rpm (38000 g) for 15 min at 4° C. • 4. Resuspend the pellet in 5 ml 50 mM Tris-HCL containing 1 mM EDTA and keep it on ice for 30 min. • 5. Pass the membrane through insulin syringe to ensure uniform suspension. • 6. Centrifuge the membrane at 18000 rpm at 4° C. for 20 min. • 7. Reconstitute the pellet in 3 ml of GTPγS buffer and estimate the protein by BCA assay and store the membrane in aliquots of 1000 μg of protein. CB1 Agonist and Antagonist Activity Screening Assay
The test compounds were screened at a final concentration of 1 μM or 300 nM in the absence and presence of 1 μM of WIN 55, 212-2 in the same manner as described in the GTPγS binding assay.
An agonist will stimulate the GTPγS binding over the basal.
An inverse agonist will decrease the basal GTPγS binding and/or produce more than 100% inhibition of the agonist (WIN-55212-2) induced stimulation.
The percent stimulation of GTPγS binding by each test compound at 1 μM or 300 nM concentration in the absence and presence of 1 μM WIN 55, 212-2 was calculated by comparing it with basal specific bound (Basal binding—Non Specific binding) values.

CB1 [2] = target: T1, CB1; assay: Rat CB1 receptor binding using brain membrane, [3H]SR141716A displacement (Protocol I); parameters: CB1 receptor present in a rat brain membrane preparation; from tissue; host or cells: rat brain membrane; inhibition: dose or concentration left out as unconfirmed; conditions: 1 h; rat brain membrane, [3H]SR141716A displacement; read-out: % Displacement Protocol I

hCB1, sequence (P21554 whole entry): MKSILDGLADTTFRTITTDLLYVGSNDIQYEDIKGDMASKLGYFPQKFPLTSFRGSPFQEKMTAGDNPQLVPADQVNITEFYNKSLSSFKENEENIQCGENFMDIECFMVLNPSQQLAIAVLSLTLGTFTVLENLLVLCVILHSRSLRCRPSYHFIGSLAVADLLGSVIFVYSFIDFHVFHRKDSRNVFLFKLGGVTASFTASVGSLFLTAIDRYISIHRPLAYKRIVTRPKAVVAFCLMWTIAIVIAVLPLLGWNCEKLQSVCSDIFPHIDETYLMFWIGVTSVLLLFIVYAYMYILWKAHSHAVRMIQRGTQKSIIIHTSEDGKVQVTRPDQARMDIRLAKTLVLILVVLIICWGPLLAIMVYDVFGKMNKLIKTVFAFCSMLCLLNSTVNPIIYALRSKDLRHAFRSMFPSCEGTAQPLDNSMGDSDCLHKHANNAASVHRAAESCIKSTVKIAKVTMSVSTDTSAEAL

Row | SMILES | % Displacement Protocol II (hCB1) | % Displacement Protocol IV (hCB2) | also measured
1 | CC1(C)C2CC[C@@](C)(C2)C1NC(=O)c1nn(-c2ccc(Cl)cc2)c2c1C1CC3CC(C1)CC2C3 (stereo partly drawn) [Example 110, N(7)-(1S,2endo-1,3,3-Trimethyl-bicyclo[2.2.1]hept-2-yl)-5-(4-chlorophenyl)-5,6-diazatetracyclo[7.3.1.1^3,11.0^4,8]tetradeca-4(8)-6-diene-7-carboxamide] | 37.69% | 60.7% | 
2 | C[C@@H](NC(=O)c1nn(-c2ccc(Cl)cc2)c2c1C1CC3CC(C1)CC2C3)c1ccccc1 [Example 118] | 45.43% | 61.23% | 
3 | O=C(NC12CC3CC(CC(C3)C1)C2)c1nn(-c2ccc(F)cc2F)c2c1C1CC3CC(C1)CC2C3 [Example 144, N(7)-(Adamantan-1-yl)-5-(2,4-difluorophenyl)-5,6-diazatetracyclo[7.3.1.1^3,11.0^4,8]tetradeca-4(8)-6-diene-7-carboxamide] | 40.13% | 69.24% | 
4 | CC1(C)[C@@H]2CC[C@@](C)(C2)[C@@H]1NC(=O)c1nn(-c2ccc(F)cc2F)c2c1C1CC3CC(C1)CC2C3 [Example 145, N(7)-(1S,2endo-1,3,3-Trimethyl-bicyclo[2.2.1]hept-2-yl)-5-(2,4-difluorophenyl)-5,6-diazatetracyclo[7.3.1.1^3,11.0^4,8]tetradeca-4(8)-6-diene-7-carboxamide] | 54.01% | 75.88% | 
5 | C[C@H](NC(=O)c1nn(-c2ccc(F)cc2F)c2c1C1CC3CC(C1)CC2C3)c1ccccc1 [Example 146] | 60.51% | 68.16% | 
6 | COC(=O)[C@H](NC(=O)c1nn(-c2ccc(F)cc2F)c2c1C1CC3CC(C1)CC2C3)c1ccccc1 [Example 154, Methyl(2R)-2-[7-(2,4-difluorophenyl)-6,7-diazatetracyclo[7.3.1.1^3,11.0^4,8]tetradeca-4(8),5-dien-5-ylcarboxamido]-2-phenylethanoate] | 96.1% | 70.19% | 
7 | COC(=O)[C@@H](NC(=O)c1nn(-c2ccc(F)cc2F)c2c1C1CC3CC(C1)CC2C3)c1ccccc1 [Example 155, Methyl(2S)-2-[7-(2,4-difluorophenyl)-6,7-diazatetracyclo[7.3.1.1^3,11.0^4,8]tetradeca-4(8),5-dien-5-ylcarboxamido]-2-phenylethanoate] | 96.65% | 72.38% | 
8 | O=C(NC12CC3CC(CC(C3)C1)C2)c1nn(-c2ccc(F)cc2)c2c1C1CC3CC(C1)CC2C3 [Example 158, N(7)-(Adamantan-1-yl)-5-(4-fluorophenyl)-5,6-diazatetracyclo[7.3.1.1^3,11.0^4,8]tetradeca-4(8)-6-diene-7-carboxamide] | 70.12% | 95.4% | 
9 | CCCCCn1nc(C(=O)NC(C)(C)c2ccccc2)c2c1C1CC3CC(CC2C3)C1 [Example 190b, N(7)-(1-Methyl-1-phenylethyl)-5-pentyl-5,6-diazatetracyclo[7.3.1.1^3,11.0^4,8]tetradeca-4(8)-6-diene-7-carboxamide] | 100% | 96.07% | 
10 | O=C(Nc1cccc(Cl)c1)c1nn(-c2ccc(Cl)cc2)c2c1C1CCC2C1 (stereo not shown) [Example 215, N(3)-(3-Chorophenyl)-1-(4-chlorophenyl)-4,5,6,7-tetrahydro-1H-4,7-methano-indazole-3-carboxamide] | 1.38% |  | 
11 | O=C(NNc1cccc(F)c1)c1nn(-c2ccc(Cl)cc2)c2c1C1CCC2C1 (stereo not shown) [Example 233, N(3)-[(3-Fluorophenyl)amino]-1-(4-chlorophenyl)-4,5,6,7-tetrahydro-1H-4,7-methano-indazole-3-carboxamide] |  |  | melting point: 199 °C; inhibition at 0.3 µM (hCB2): 46.2%; activation at 1 µM (CB1 [1]): -16.3%; inhibition at 1 µM (CB1 [1]): 79.5%; inhibition (CB1 [2]): 73.2%
12 | O=C(NCc1ccc(F)cc1)c1nn(-c2ccc(Cl)cc2Cl)c2c1C1CCC2C1 (stereo not shown) [Example 246, N(3)-(4-Fluorobenzyl)-1-(2,4-dichlorophenyl)-4,5,6,7-tetrahydro-1H-4,7-methano-indazole-3-carboxamide] |  |  | melting point: 106 to 108 °C; inhibition at 0.3 µM (hCB2): 30.4%; activation at 1 µM (CB1 [1]): 0.7%; inhibition at 1 µM (CB1 [1]): 98.9%; inhibition (CB1 [2]): 46%
13 | O=C(NNc1ccccc1Cl)c1nn(-c2ccc(F)cc2F)c2c1C1CCC2C1 (stereo not shown) [Example 286, N(3)-[(2-Chlorophenyl)amino]-1-(2,4-difluorophenyl)-4,5,6,7-tetrahydro-H-4,7-methano-indazole-3-carboxamide] | 32.35% |  | 
14 | C[C@H](NC(=O)c1n[nH]c2c1C1(c3ccc(F)cc3F)CCC2C1)c1ccccc1 (stereo partly drawn) [Example 292, N(3)-[S-(1-Phenylethyl)]-4-(2,4-difluorophenyl)-4,5,6,7-tetrahydro-1H-4,7-methano-indazole-3-carboxamide] | 69.79% |  | 
15 | COC(=O)[C@@H](NC(=O)c1nn(-c2ccc(F)cc2F)c2c1C1CCC2C1)c1ccccc1 (stereo partly drawn) [Example 301, Methyl(2S)-2-[5-(2,4-difluorophenyl)-4,5-diazatricyclo[5.2.1.0.^2,6]deca-2(6),3-dien-3-ylcarboxamido]-2-phenylethanoate] | 82.54% | 82.09% | 
16 | O=C(NN1CCOCC1)c1nn(-c2ccc(F)cc2F)c2c1C1CCC2C1 (stereo not shown) [Example 312, 4-[5-(2,4-Difluorophenyl)-4,5-diazatricyclo[5.2.1.0^2,6]deca-2(6),3-dien-3-ylcarboxamido]morpholine] | 10.97% | 4.47% | 
17 | COC(=O)[C@H](NC(=O)c1nn(-c2ccc(F)cc2F)c2c1C1CCC2C1)c1ccccc1 (stereo partly drawn) [Example 319, Methyl (2R)-2-[5-(2,4-difluorophenyl)-4,5-diazatricyclo[5.2.1.0.^2,6]deca-2(6),3-dien-3-ylcarboxamido]-2-phenylethanoate] | 88.02% | 86.68% | 
